In general, Ki refers to a dissociation constant, usually derived from enzyme kinetics or from competition with a known ligand. A low value points to higher affinity.

The target of the first test is T1, human motilin receptor (Homo sapiens, UniProt O43193).
T1 construct: purchased PerkinElmer (SignalScreen) 6110544; host or cells: CHO cells, stably transfected (membranes)
T1 sequence (O43193 whole entry): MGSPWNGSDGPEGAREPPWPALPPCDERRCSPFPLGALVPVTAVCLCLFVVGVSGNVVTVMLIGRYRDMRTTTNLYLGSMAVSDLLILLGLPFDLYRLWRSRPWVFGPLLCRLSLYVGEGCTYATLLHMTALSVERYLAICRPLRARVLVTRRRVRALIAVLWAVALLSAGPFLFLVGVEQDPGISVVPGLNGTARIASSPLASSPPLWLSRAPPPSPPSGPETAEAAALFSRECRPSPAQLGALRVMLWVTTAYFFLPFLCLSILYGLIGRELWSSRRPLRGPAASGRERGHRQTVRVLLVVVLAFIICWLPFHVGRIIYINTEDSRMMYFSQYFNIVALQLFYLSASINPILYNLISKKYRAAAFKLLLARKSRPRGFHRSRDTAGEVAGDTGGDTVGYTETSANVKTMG
Nature of the test: Competitive radioligand binding assay (motilin receptor), Method B1. The conditions noted are these: [125I]-motilin competition, CHO cell membranes. On the procedure:
(§1) The compounds of the present invention were evaluated for their ability to interact at the human motilin receptor and the human ghrelin receptor utilizing competitive radioligand binding assays as described in Method B1 and B2, respectively. Further characterization of the interaction can be performed utilizing the functional assays described in Methods B3 and B4 for the motilin and ghrelin receptors, respectively. All of these methods can be conducted, if so desired, in a high throughput manner to permit the simultaneous evaluation of many compounds.
Competitive Radioligand Binding Assay (Motilin Receptor)
• Membranes were prepared from CHO cells stably transfected with the human motilin receptor and utilized at a quantity of 1.5 μg/assay point. [PerkinElmer® SignalScreen® Product #6110544, Perkin Elmer, Inc., Wellesley, Mass.] • [^125I]-Motilin (PerkinElmer®, #NEX-378); final concentration: 0.04-0.06 nM • Motilin (Bachem®, #H-4385, Bachem AG Corporation, Bubendorf, Switzerland); final concentration: 1 μM • Multiscreen® Harvest plates-GF/B (Millipore®, #MAHFB1H60, Millipore Corporation, Billerica, Mass.) • Deep-well polypropylene titer plate (Beckman Coulter®, #267006, Beckman Coulter, Inc., Fullerton, Calif.) • TopSeal-A (PerkinElmer®, #6005185) • Bottom seal (Millipore®, #MATAH0P00) • MicroScint™-0 (PerkinElmer®, #6013611) • Binding Buffer: 50 mM Tris-HCl (pH 7.4), 10 mM MgCl2, 1 mM EDTA, 0.1% BSA
Assay Volumes: • 150 μl of membranes diluted in binding buffer • 10 μl of compound diluted in binding buffer • 10 μl of radioligand ([^125I]-Motilin) diluted in binding buffer
Compounds were provided frozen on dry ice at a stock concentration of 10 mM diluted in 100% DMSO and stored at −20° C. until the day of testing. On the test day, compounds were allowed to thaw at room temperature and than diluted in assay buffer according to the desired test concentrations. Under these conditions, the maximum final DMSO concentration in the assay was 0.5%.
In deep-well plates, diluted cell membranes (1.5 μg/mL) are combined with 10 μl of either binding buffer (total binding, N=5), 1 μM motilin (non-specific binding, N=3) or the appropriate concentration of test compound. The reaction is initiated by addition of 10 μl of [^125I]-motilin (final conc. 0.04-0.06 nM) to each well. Plates are sealed with TopSeal-A, vortexed gently and incubated at room temperature for 2 hours. The reaction is arrested by filtering samples through pre-soaked (0.3% polyethyleneimine, 2 h) Multiscreen® Harvest plates using a Tomtec ® Harvester (TomTec, Inc., Hamden Conn.), washed 9 times with 500 μl of cold 50 mM Tris-HCl (pH 7.4), and than plates are air-dried in a fumehood for 30 minutes. A bottom seal is applied to the plates prior to the addition of 25 μl of MicroScint™-0 to each well. Plates are than sealed with TopSeal-A and counted for 30 sec per well on a TopCount® Microplate Scintillation and Luminescence Counter (PerkinElmer®) where results are expressed as counts per minute (cpm).
Data are analyzed by GraphPad Prism® (GraphPad Software, Inc., San Diego, Calif.) using a variable slope non-linear regression analysis.
[formula] where total and non-specific binding represent the cpm obtained in the absence or presence of 1 μM motilin, respectively.
As to `CC(C)[C@H]1CC[C@@H](Cc2cccc(Cl)c2)NCCOc2ccccc2CCCNC(=O)[C@H](CNC(=N)N)NC1=O` [Compound 101], the Ki lay within 10 to 100 nM.

Molecule `CCC[C@@H]1CC[C@@H](C(C)C)NC(=O)[C@@H](Cc2cccc(Cl)c2)NCCOc2ccccc2CCCNC1=O` [Compound 103] displayed an inhibitory constant (Ki) of 1000 to 10000 nM.

Regarding `CCC[C@@H]1/C=C/[C@@H](C(C)C)NC(=O)[C@@H](Cc2cccc(Cl)c2)NCCOc2ccccc2CCCNC1=O` [Compound 104], the Ki was 1000 to 10000 nM.

`CCC[C@@H]1NC(=O)[C@@H](C(C)C)/C=C/[C@@H](Cc2ccc(OC)cc2)NCCOc2ccccc2CCCNC1=O` [Compound 105] had a Ki of 1000 to 10000 nM.

As to `CCC[C@@H]1NC(=O)[C@@H](C(C)C)CC[C@@H](Cc2ccc(OC)cc2)NCCOc2ccccc2CCCNC1=O` [Compound 109], the inhibition constant (Ki) lay in the range of 100 to 1000 nM.

`CCC[C@@H]1NC(=O)C(C(C)C)CC[C@@H](Cc2ccc(OC)cc2)NCCOc2ccccc2CCCNC1=O` (stereo partly shown) [Compound 110] came in with an inhibition constant Ki of 1000 to 10000 nM.

`CCC[C@@H]1NC(=O)[C@@H](C(C)C)OC(=O)[C@@H](Cc2cccc3ccccc23)NCCOc2ccccc2CCCNC1=O` [Compound 111] showed an inhibitory constant (Ki) of 100 to 1000 nM.

Molecule `CCC[C@@H]1NC(=O)C(C(C)C)OC(=O)[C@@H](Cc2ccc(OC)cc2)NCCOc2ccccc2CCCNC1=O` (stereo partly shown) [Compound 112] returned a Ki of 100 to 1000 nM.

In turn, `CCC[C@@H]1NC(=O)[C@@H](C(C)C)NC(=O)[C@@H](Cc2ccc(O)cc2)NCCOc2ccccc2CCCOC1=O` [Compound 115] gave a Ki of 1000 to 10000 nM.

Take `CC(C)C[C@H]1C(=O)NCCCc2ccccc2OCCN[C@H](Cc2ccc(O)cc2)C(=O)N[C@H](C(C)C)C(=O)N1C` [Compound 116]: the inhibitory constant (Ki) lay in the range of 100 to 1000 nM.

Molecule `CCC[C@@H]1NC(=O)[C@@H](C(C)C)OC(=O)[C@@H](Cc2ccc(O)cc2)NCCOc2ccccc2CCCNC1=O` [Compound 119] registered a Ki of 100 to 1000 nM.

The target of another test is T2, human ghrelin receptor (hGHS-R1a) (Homo sapiens, UniProt Q92847).
T2 construct: purchased PerkinElmer BioSignal RBHGHSM, lot#1887; host or cells: HEK-293 cells, stably transfected (membranes GHS-R/HEK 293)
T2 sequence (Q92847 whole entry): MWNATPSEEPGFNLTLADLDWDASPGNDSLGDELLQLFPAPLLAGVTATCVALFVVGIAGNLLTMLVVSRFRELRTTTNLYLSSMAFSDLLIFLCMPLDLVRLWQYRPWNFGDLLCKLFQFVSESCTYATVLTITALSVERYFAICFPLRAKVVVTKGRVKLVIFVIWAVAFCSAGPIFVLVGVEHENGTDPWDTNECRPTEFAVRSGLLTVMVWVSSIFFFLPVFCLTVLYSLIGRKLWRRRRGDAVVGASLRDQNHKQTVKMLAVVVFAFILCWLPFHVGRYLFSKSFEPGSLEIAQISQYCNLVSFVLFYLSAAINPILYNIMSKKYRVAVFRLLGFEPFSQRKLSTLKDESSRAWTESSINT
Nature of the test: Competitive radioligand binding assay (ghrelin receptor), Method B2. Conditions: [125I]-ghrelin competition, HEK-293 cell membranes. On the procedure: as §1
Competitive Radioligand Binding Assay (Ghrelin Receptor)
The competitive binding assay at the human growth hormone secretagogue receptor (hGHS-R1a) was carried out analogously to assays described in the literature. (Bednarek M A et al. (2000), Structure-function studies on the new growth hormone-releasing peptide ghrelin: minimal sequence of ghrelin necessary for activation of growth hormone secretagogue receptor 1a; J Med Chem 43:4370-4376. Palucki B L et al. (2001), Spiro(indoline-3,4′-piperidine) growth hormone secretagogues as ghrelin mimetics; Bioorg Med Chem Lett 11:1955-1957.)
• Membranes (GHS-R/HEK 293) were prepared from HEK-293 cells stably transfected with the human ghrelin receptor (hGHS-R1a).
Compounds were provided frozen on dry ice at a stock concentration of 10 mM diluted in 100% DMSO and stored at −80° C. until the day of testing. On the test day, compounds were allowed to thaw at rt overnight and then diluted in assay buffer according to the desired test concentrations. Under these conditions, the maximal final DMSO concentration in the assay was 0.1%.
In deep-well plates, 220 μl of diluted cell membranes (final concentration: 0.71 μg/well) were combined with 40 μl of either binding buffer (total binding, N=5), 1 μM ghrelin (non-specific binding, N=3) or the appropriate concentration of test compound (N=2 for each test concentration). […] Plates were sealed with TopSeal-A, vortexed gently and incubated at rt for 30 min. The reaction was arrested by filtering samples through Multiscreen® Harvest plates (pre-soaked in 0.5% polyethyleneimine) using a Tomtec® Harvester, washed 9 times with 500 μL of cold 50 mM Tris-HCl (pH 7.4, 4° C.), and then plates were air-dried in a fumehood for 30 min. A bottom seal was applied to the plates prior to the addition of 25 μl of MicroScint™-0 to each well. Plates were than sealed with TopSeal-A and counted for 30 sec per well on a TopCount® Microplate Scintillation and Luminescence Counter (PerkinElmer®) using a count delay of 60 sec. Results were expressed as counts per minute (cpm).
Data were analyzed by GraphPad Prism® (GraphPad Software, Inc., San Diego, Calif.) using a variable slope non-linear regression analysis.
The molecule `C[C@@H]1NCCOc2ccccc2CCCNC(=O)[C@@H](Cc2ccccc2)NC(=O)CN(C)C1=O` [Compound 124] returned an inhibition constant (Ki) of 1000 to 10000 nM.

As for `CN1CC(=O)N[C@H](Cc2ccccc2)C(=O)NCCCc2ccccc2OCCN[C@@H](CCCCN)C1=O` [Compound 127], the inhibition constant (Ki) is 1000 to 10000 nM.

Turning to `CN1CC(=O)N[C@H](Cc2ccccc2)C(=O)NCCCc2ccccc2OCCN[C@@H](Cc2ccccc2)C1=O` [Compound 128], the Ki was in the range of 100 to 1000 nM.

On to `CCC(C)[C@@H]1NCCOc2ccccc2CCCNC(=O)[C@@H](Cc2ccccc2)NC(=O)[C@H](C(C)C)N(C)C1=O` (stereo partly shown) [Compound 131], for which the inhibitory constant (Ki) was in the range of 100 to 1000 nM.

`CCC(C)[C@@H]1NCCOc2ccccc2CCCNC(=O)[C@@H](Cc2ccccc2)NC(=O)[C@@H](C(C)CC)N(C)C1=O` (stereo partly shown) [Compound 136] came in with an inhibitory constant (Ki) of 1000 to 10000 nM.

The molecule `CCC(C)[C@@H]1NCCOc2ccccc2CCCNC(=O)[C@@H](Cc2ccccc2)NC(=O)[C@H](C(C)CC)N(C)C1=O` (stereo partly shown) [Compound 138] gave an inhibition constant (Ki) of 100 to 1000 nM.

Molecule `C[C@@H]1C(=O)N[C@H](Cc2ccc(F)cc2)C(=O)NCCOCCOCCN[C@@H](C2CC2)C(=O)N1C` [Compound 140] registered an inhibitory constant (Ki) of 1000 to 10000 nM.

On to `C[C@@H]1C(=O)N[C@H](Cc2ccc(F)cc2)C(=O)NCCOc2cccc(c2)OCCN[C@@H](C2CC2)C(=O)N1C` [Compound 149], for which the inhibition constant Ki is 100 to 1000 nM.

The molecule `CCC[C@@H]1NCc2cccc(c2)CNC(=O)[C@@H](Cc2ccccc2)NC(=O)CN(C)C1=O` [Compound 158] registered an inhibition constant Ki of 1000 to 10000 nM.

`CCC(C)[C@@H]1NCCOc2ccccc2/C=C/CNC(=O)N(Cc2ccccc2)NC(=O)[C@@H](C)N(C)C1=O` (stereo partly shown) [Compound 165] displayed a Ki of 10 to 100 nM.

In turn, `CCC[C@H]1C(=O)N(C)[C@H](C)C(=O)N[C@H](Cc2ccccc2)C(=O)NCCCc2ccccc2OCCN1C` [Compound 167] displayed a Ki of 100 to 1000 nM.

For the origin of these results see US7550431B2, “Spatially-defined macrocycles incorporating peptide bond surrogates” (Tranzyme Pharma Inc., priority 2003, dated 2009).
